From publication PMC9599246 (2022)

Test system: fl-2CS1 (DNA, aptamer) GAGAGGTCAGATGATGCACTAGGGTTACGAGACCACGCGGTACCCTATGCGTGCTAC
Assay: ITC
Settings: none added; 0.1 M Tris-HCl pH 7.4, 1% DMSO, 25 °C; 125 μM toxin in syringe, 5 μM aptamer in cell

Row | SMILES | binding
1 | C[C@@H]1Cc2c(Cl)cc(C(=O)N[C@@H](Cc3ccccc3)C(=O)O)c(O)c2C(=O)O1 | no
2 | CCCC[C@@H](C)[C@@H](OC(=O)C[C@@H](CC(=O)O)C(=O)O)[C@H](C[C@@H](C)C[C@H](O)CCCC[C@@H](O)C[C@H](O)[C@H](C)N)OC(=O)C[C@@H](CC(=O)O)C(=O)O | no
